Values after ≈ are worked out from the molar mass of the structure shown.
Legend:
in vivo = conditions: male, Dutch Belted, rabbit, topical or ocular, 4 mg
Excerpt: The animals' eyes were examined by a board certified veterinary ophthalmologist using a slitlamp biomicroscope and an indirect ophthalmoscope. The exams occurred predose and on the indicated study days prior to sacrifice, as applicable. On specified days, at least two animals/time point were euthanized for the collection of blood (for plasma) and ocular tissues (aqueous humor, vitreous humor, retina, and sclera/choroid-RPE).
For the initial study, the animals were acclimated to study conditions for 16 days prior to dose administration. At dosing, the animals weighed 1721 to 1941 g and were 5 months of age. All animals were housed in individual, suspended, stainless steel cages during acclimation and the test period. Certified Hi-Fiber Rabbit Diet #5325 (PMI) was provided. Water was provided fresh daily, ad libitum. Environmental controls for the animal room were set to maintain a temperature of 16 to 22° C. (Deviation), a relative humidity of 50±20% (Deviation), and a 12-hour light/12-hour dark cycle. […]
The dosing formulation was drawn up into a 1-mL luer-lock syringe using a standard 21-gauge, 1-inch needle; any bubbles were expressed, and the standard needle was replaced by a 30-gauge microneedle 700 μm in length. […] Any dosing observations were recorded. […]

[1] = Ocular distribution and pharmacokinetics after suprachoroidal injection of CLS-AX, 0.03 or 0.1 mg/eye (second study); assay type: in vivo, male pigmented Dutch Belted rabbits; conditions: for tmax: Retina; for half-life: sclera/choroid-RPE (SCR), SCR; for Cmax: topical or ocular, study day 2
[2] = Solubility of the API (product profile); assay type: physicochemical

CNC(=O)c1ccccc1Sc1ccc2c(/C=C/c3ccccn3)n[nH]c2c1 [Axitinib]
half-life (in vivo): 102 days | Cmax (in vivo; Cmax): 857 ng/mL | eyes having quantifiable levels in retina ([1]; 0.03 mg/eye, days 31 and 61): 1 of 4 | eyes having quantifiable levels in retina ([1]; 0.1 mg/eye, Days 45 through 66): 1 of 4 | tmax ([1]; 0.03 mg/eye): 1 days | tmax ([1]; 0.1 mg/eye): 1 days | concentration at 15 day ([1]; male, Dutch Belted, rabbit, other: suprachoroidal injection, retina, 0.03 mg/eye, by day 15, essentially below, read-out: mean retina concentrations (limit of quantitation)): < 16.7 ng/g | half-life ([1]; male, Dutch Belted, rabbit, other: suprachoroidal injection, 0.03 mg/eye): 10.7 days | half-life ([1]; male, Dutch Belted, rabbit, other: suprachoroidal injection, 0.1 mg/eye): 15.8 days | Cmax ([1]; male, Dutch Belted, rabbit, retina, 0.03 mg/eye): 4480 ng/g | Cmax ([1]; male, Dutch Belted, rabbit, retina, 0.1 mg/eye): 6260 ng/g | mean AUC0-t, higher dose versus lower dose ([1]; retina, 0.1 vs 0.03 mg/eye): 1.6 fold | mean Cmax, higher dose versus lower dose ([1]; retina, 0.1 vs 0.03 mg/eye): 1.4 fold | Solubility (solvent) [2]: DMSO | solubility ([2]; in water): 0.2 µg/mL (≈ 0.517 µM)

Source: US20230089914A1 (Clearside Biomedical, Inc., priority 2020, published 2023)
